Values after ≈ are worked out from the molar mass of the structure shown.
System: antiserum KLH-R3 (I) (polyclonal anti-Rebaudioside D antibody)
Assay: Competitive indirect ELISA for Rebaudioside D (conjugate-coated format, antiserum KLH-R3 (I) / BSA-R3 coating conjugate)
Assay type: binding, rabbit
Details: for cross-reactivity CR = (IC50 Rebaudioside D/IC50 compound)×100: developed immunoassay for Reb D
Procedure: The hapten R1 (rebaudioside D) (5 mg suspended in 0.5 mL of 10 mM PBS) and KLH-conjugates or BSA-R (n=2-5), (0.5 mL of conjugate at a concentration of […], 10 mM PBS) were injected intramuscularly into two New Zealand California white rabbits, with 0.5 mL of complete Freund's adjuvant in the first immunization, and 0.5 mL of incomplete Freund's adjuvant in the following. Immunizations were performed every 21 days, and 10 days after each immunization bleedings were carried out to know the title and properties of serum from each animal. After five cycles of immunization, blood was obtained by bleeding, leaving it to coagulate overnight at 4° C. Subsequently, after adding sodium azide (0.02%) serum was separated by centrifugation and stored at −80° C.
First, the avidity of the sera obtained against different coating conjugates was determined by non-competitive indirect ELISA using different antisera (serial dilutions from 1/1000 to 1/64000) and concentrations of the coating conjugates (0.001 to 1.0 mg/L). Similarly, the avidity to the enzyme-tracer was determined by a direct non-competitive ELISA using several dilutions of the tracer (serial dilutions from 0.001 to 1.0 mg/L) and serum (from 1/500 to 1/512000).
The titres obtained from conjugate-coated format indirect format (ELISA plates coated with protein-hapten) were higher than those obtained for direct format (ELISA plates coated with serum), choosing as optimal concentrations of coating conjugates and dilution of serum, those that produced absorbance values around 0.8-1.2 units in absence of analyte (Rebaudioside D), to carry out competitive tests.
Flat-bottomed polystyrene ELISA plates were coated overnight at 4° C. with 100 μL/well of the appropriate coating conjugate solution in CB. The following day, plates were washed six times with 15 mmol/L PBS-T pH 8.5, and then 50 μL of the serum dilution and 50 μL of Reb D in PBS-T were added and incubated at room temperature during 1 h. After washing, an incubation step (1 h) with 100 μL/well GAR-HRP (diluted 1/2000 in PBS-T) was accomplished, and plates washed again. Finally, 100 μL/well of substrate solution (2 mg/mL OPD and 0.012% H2O2 in 25 mmol/L sodium citrate and 62 mmol/L sodium phosphate, pH 5.5) was added. The enzymatic reaction was stopped after 10 min by addition of 2.5 mol/L H2SO4 (50 μL/well), and the absorbance was read in a dual-wavelength mode (490, 650 nm).
The optimization was performed for the most sensitive assay (antiserum KLH-R3/BSA-R3 coating conjugate) using Reb D as competitor analyte.
The influence of several experimental parameters such as ionic strength, pH, surfactant concentration and time of competition on assay characteristics was examined in order to improve the immunoassay performance (sensitivity, maximum absorbance, working or dynamic range and detection limit). Criteria used to evaluate the assay performances were sensitivity (IC50), maximum absorbance (A0), dynamic range (DR, established between the Reb D concentrations producing 20% and 80% colour inhibition) and limit of detection (LD, estimated at 10% inhibitory concentration).
Assay selectivity was evaluated by determining the cross-reactivity with two sugars derived from Stevia rebaudiana, such as rebaudioside A and stevioside. The cross reactivity values were calculated according to the following equation: CR=(IC50 [mg/L] Rebaudioside D/IC50 [mg/L] compound)×100.

[1] = cross-reactivity study, related compound as competitor

In the case of `C=C1C[C@@]23CC[C@H]4[C@@](C)(CCC[C@@]4(C)C(=O)O[C@@H]4O[C@H](CO)[C@@H](O)[C@H](O)[C@H]4O)[C@@H]2CC[C@]1(O[C@@H]1O[C@H](CO)[C@@H](O)[C@H](O)[C@H]1O[C@@H]1O[C@H](CO)[C@@H](O)[C@H](O)[C@H]1O)C3` [Stevioside], the IC50 [1] was 418,605 μg/L and the “cross-reactivity CR = (IC50 Rebaudioside D/IC50 compound)×100” value was 8.6×10^−5%.

With `C=C1C[C@@]23CC[C@H]4[C@@](C)(CCC[C@@]4(C)C(=O)O[C@@H]4O[C@H](CO)[C@@H](O)[C@H](O)[C@H]4O)[C@@H]2CC[C@]1(O[C@@H]1O[C@H](CO)[C@@H](O)[C@H](O[C@@H]2O[C@H](CO)[C@@H](O)[C@H](O)[C@H]2O)[C@H]1O[C@@H]1O[C@H](CO)[C@@H](O)[C@H](O)[C@H]1O)C3` [Rebaudioside A] the IC50 [1] was 225 µg/L (≈ 233 nM) and the “cross-reactivity CR = (IC50 Rebaudioside D/IC50 compound)×100” value was 0.16%.

`C=C1C[C@@]23CC[C@H]4[C@@](C)(CCC[C@@]4(C)C(=O)O[C@@H]4O[C@H](CO)[C@@H](O)[C@H](O)[C@H]4O[C@@H]4O[C@H](CO)[C@@H](O)[C@H](O)[C@H]4O)[C@@H]2CC[C@]1(O[C@@H]1O[C@H](CO)[C@@H](O)[C@H](O[C@@H]2O[C@H](CO)[C@@H](O)[C@H](O)[C@H]2O)[C@H]1O[C@@H]1O[C@H](CO)[C@@H](O)[C@H](O)[C@H]1O)C3` [Rebaudioside D] was tested, and the IC50 (PBS 5 mmol/L, 0.05% Tween 20, pH 7.5) was 1.53 ± 0.41 µg/L (≈ 1.35 nM), the IC50 (PBS 10 mmol/L, 0.05% Tween 20, pH 7.5) was 1.30 ± 0.35 µg/L (≈ 1.15 nM) and the IC50 (PBS 15 mmol/L, 0.05% Tween 20, pH 7.5) was 0.77 ± 0.24 µg/L (≈ 0.682 nM). The IC50 (PBS 20 mmol/L, 0.05% Tween 20, pH 7.5) was 1.02 ± 0.28 µg/L (≈ 0.903 nM), the IC50 (PBS 30 mmol/L, 0.05% Tween 20, pH 7.5) was 1.70 ± 0.45 µg/L (≈ 1.51 nM) and the IC50 (Tween 20 0.000%, 15 mM PBS, pH 8.5) was 0.68 ± 0.26 µg/L (≈ 0.602 nM). It also gave an IC50 (Tween 20 0.010%, 15 mM PBS, pH 8.5) of 0.56 ± 0.23 µg/L (≈ 0.496 nM), an IC50 (Tween 20 0.025%, 15 mM PBS, pH 8.5) of 0.58 ± 0.19 µg/L (≈ 0.514 nM) and an IC50 (Tween 20 0.050%, 15 mM PBS, pH 8.5) of 0.49 ± 0.15 µg/L (≈ 0.434 nM). The IC50 (Tween 20 0.100%, 15 mM PBS, pH 8.5) was 0.39 ± 0.08 µg/L (≈ 0.345 nM), the IC50 (optimal conditions (15 mM PBS, pH 8.5, 0.25% Tween 20), set of 20 calibration curves) was 0.36 ± 0.05 µg/L (≈ 0.319 nM) and the “detection limit (LD, estimated at 10% inhibitory concentration)” value (optimal conditions, 20 calibration curves) was 0.01 µg/L. The IC50 (pH 4.5, 15 mM PBS, 0.05% Tween 20) was 0.63 ± 0.21 µg/L (≈ 0.558 nM), the IC50 (pH 5.5, 15 mM PBS, 0.05% Tween 20) was 0.86 ± 0.23 µg/L (≈ 0.762 nM) and the IC50 (pH 6.5, 15 mM PBS, 0.05% Tween 20) was 0.91 ± 0.27 µg/L (≈ 0.806 nM). The IC50 (pH 7.5, 15 mM PBS, 0.05% Tween 20) was 0.77 ± 0.24 µg/L (≈ 0.682 nM), the IC50 (pH 8.5, 15 mM PBS, 0.05% Tween 20) was 0.49 ± 0.15 µg/L (≈ 0.434 nM) and the IC50 (pH 9.5, 15 mM PBS, 0.05% Tween 20) was 0.50 ± 0.19 µg/L (≈ 0.443 nM). It also gave an IC50 (serum screening, before optimization, pair KLH-R3 (I)/BSA-R3 (1:2000/0.03 mg/L)) of 1.30 µg/L (≈ 1.15 nM).

Source: US10254278B2, “Method and system for detection of natural high intensity sweeteners that contain hydroxyl groups” (PureCircle Sdn Bhd, priority 2011, dated 2019)
